# Literature values, collected in patent US6576256B2, “Treatment of patients at elevated cardiovascular risk with a combination of a cholesterol-lowering agent, an inhibitor of the renin-angiotensin system, and aspirin” (priority 2001, dated 2003).
# Key:
# blood pressure = settings: relative to angiotensin II
# [1] = test system: patients at risk for cardiovascular events; settings: daily administration of low doses (approximately 80 mg)
Molecule,hypertensive activity as share of that of angiotensin II (blood pressure),"reduction of second heart attacks, strokes, and cardiovascular deaths [1]"
"angiotensin I (DRVYIHPFHL; Angiotensin-1; UniProt P01019 25-34, looked up) [decapeptide formed by renin acting on angiotensinogen]",about 1%,
"CC(=O)Oc1ccccc1C(=O)O [aspirin, acetylsalicylic acid]",,at least 25%
